Laboratory results: patent publication US20220016101A1 (ACADIA Pharmaceuticals Inc., priority 2018, published 2022)
“And” between values parts separate entries of the source, which are not always exact repeats. Identical values can stand only once.

Legend:
[1] = test system: patients with MDD and an inadequate response to an SSRI or SNRI; experiment: Safety and tolerability (adverse events), Study ACP-103-042
[2] = test system: patients with MDD and an inadequate response to an SSRI or SNRI; experiment: Sheehan Disability Score (SDS): score, functional remission, days unproductive, MDD study; assay type: in vivo, human
Excerpt: The SDS is well validated and widely accepted for assessing functional outcomes in patients with MDD (Weiller et al, Neuropsychiatr Dis Treat. 2017; 14:103-115). […] Routine assessments of both symptoms and function could be helpful for minimizing residual effects that increase the risk for relapse or recurrence (Sheehan et al, J Affect Disord. 2017; 215:299-313).
“Functional remission” as used herein refers to remission in functional impairment. Functional remission is defined as a SDS total score of 6 or less at endpoint. (Sheehan et al. Human Psychopharmacology 2016, 31, 53-63).
All patients continued on their SSRI or SNRI at a stable dose for the duration of the study.
Clinic visits occurred weekly from Weeks 1 through 10. The MADRS was administered at screening and baseline. The HAMD-17, SDS, CGI, and KSS were administered at baseline and weekly during the study. Other endpoints such as the SF-12 were administered at baseline and Weeks 5 and 10. Treatment response was defined as a reduction of 50% from baseline for the HAMD-17 total score, and remission was defined as a HAMD-17 total score
In Stage 1, weeks 1-5 is the study weeks 1-5 and in Stage 2, weeks 1-5 is the study weeks 6-10. 95% CI refers to Newcombe 95% confidence interval. The p-value is from stage-specific Pearson's Chi-square test. Functional remission is defined as SDS total score […].
Higher SDS mean score indicates greater functional impairment. […] In Stage 1, weeks 1-5 is the study weeks 1-5 and in Stage 2, weeks 1-5 is the study weeks 6-10. LSM from the stage-specific MMRM analysis with the change from baseline as the outcome; treatment group, visit, treatment-by-visit interaction, baseline SDS Day Unproductive, and baseline SDS Days Unproductive-by-visit interaction as the factors. 2-sided p-value for treatment difference from the stage-specific MMRM analysis.

[3] = test system: patients with MDD and an inadequate response to an SSRI or SNRI; experiment: HAMD-17 Item 14 (sexual interest), Study ACP-103-042; assay type: in vivo, human; details: Week 5
Excerpt: The determination of the subject's status and eligibility for randomization in Stage 2 was made in a double-blind manner.

[4] = test system: adults with Parkinson's disease and depression; experiment: CGI-I, open-label study in Parkinson's disease and depression; assay type: in vivo, human; details: interim, first 31 patients
Excerpt: “Clinical Global Impression (CGI)” scale is a clinician-rated, 7-point scale that is designed to rate the severity of the subject's depression at the time of assessment using the Investigator's judgment and past experience with subjects who have the same disorder (i.e., depression with anxious distress). “Clinical Global Impression-Improvement (CGI-I)” is a clinician-rated, 7-point scale that is designed to rate the improvement in the subject's depression at the time of assessment, relative to the symptoms at Baseline. “Clinical Global Impression—Severity (CGI-S)” is an assessment of the current severity of the patient's disease.
Subjects can receive treatment as either monotherapy or adjunctively if inadequately controlled with SSRI/SNRI monotherapy. […] Secondary endpoints include Clinical Global Impression (CGI) scales (improvement and severity), Scale of Outcomes in PD-Sleep (SCOPA), and quality of life as measured by EuroQol-5 dimensions-5 levels (EQ-5D-5L).
At approximately 2, 4, and 6 weeks after start of dosing of study drug subjects returned to the clinic for assessments. Safety measures, HAMD-17, C-SSRS (Columbia Suicide Severity Rating Scale), CGI-S(Clinical Global Impression-Severity), and CGI-I (Clinical Global Impression-Improvement) were evaluated at all visits. […]

CC(C)COc1ccc(CNC(=O)N(Cc2ccc(F)cc2)C2CCN(C)CC2)cc1 [pimavanserin, N-(4-Fluorophenylmethyl)-N-(1-methylpiperidin-4-yl)-N′-(4-(2-methylpropyloxy)phenylmethyl)carbamide]
Discontinuations due to adverse events ([1]; 34 mg QD + SSRI/SNRI): 1.2% and 1.9% | rates of daytime sleepiness, weight gain, metabolic laboratory tests, and sexual dysfunction ([1]; 34 mg QD + SSRI/SNRI): low rates | tolerability ([1]; 34 mg QD + SSRI/SNRI): generally well-tolerated | tolerability ([1]; 34 mg QD + SSRI/SNRI, listed as Pimavanserin): well tolerated | subjects reporting serious adverse events ([1]; deemed not related to study drug): One subject | SDS Days Unproductive Effect Size (Cohen's d) ([2]; Stage 1): 0.518 | SDS Days Unproductive Change from Baseline to Week 5 Mean (SE) ([2]; Stage 1, 34 mg QD + SSRI/SNRI): −2.364 (0.3253) | SDS Days Unproductive Change from Baseline to Week 5 Median ([2]; Stage 1, 34 mg QD + SSRI/SNRI): −2.000 | SDS Days Unproductive Week 5 Mean (SE) ([2]; Stage 1, 34 mg QD + SSRI/SNRI): 0.956 (0.2356) | SDS Days Unproductive Week 5 Median ([2]; Stage 1, 34 mg QD + SSRI/SNRI): 0.000 | SDS score LSmean (SE) change from baseline to Week 5 ([2]; Stage 1, 34 mg QD + SSRI/SNRI): −3.3 (0.35) | SDS score LSmean (SE) change from baseline to Week 5 ([2]; Stage 1, 34 mg QD + SSRI/SNRI, listed as Pimavanserin): −3.254 | SDS effect size (Cohen's d) ([2]; Stage 1 Week 5): 0.498 and ~0.5 | SDS individual items (work/school, social life, family life/home responsibilities) effect size vs placebo ([2]; Stage 1 Week 5): a positive effect size was observed for all the 3 individual items | SDS effect size (Cohen's d) ([2]; Stage 1 Week 5, listed as Pimavanserin): 0.498 | SDS Days Unproductive Effect Size (Cohen's d) ([2]; Stage 2): 0.167 | SDS effect size (Cohen's d) ([2]; Stage 2): 0.311 | SDS Days Unproductive Change from Baseline to Week 5 Mean (SE) ([2]; Stage 2, 34 mg QD + SSRI/SNRI): −0.655 (0.4689) | SDS Days Unproductive Change from Baseline to Week 5 Median ([2]; Stage 2, 34 mg QD + SSRI/SNRI): −1.000 | SDS Days Unproductive Week 5 Mean (SE) ([2]; Stage 2, 34 mg QD + SSRI/SNRI): 2.276 (0.4295) | SDS Days Unproductive Week 5 Median ([2]; Stage 2, 34 mg QD + SSRI/SNRI): 2.000 | SDS Score LSM change from baseline to Week 5 ([2]; Stage 2, 34 mg QD + SSRI/SNRI): −0.901 | Functional remission: Remitter (%) ([2]; Week 1, Stage 1, 34 mg QD + SSRI/SNRI): 9 (17.6) % | Functional remission: Remitter (%) ([2]; Week 1, Stage 2, 34 mg QD + SSRI/SNRI): 2 (6.9) % | Functional remission: Remitter (%) ([2]; Week 2, Stage 1, 34 mg QD + SSRI/SNRI): 21 (41.2) % | Functional remission: Remitter (%) ([2]; Week 2, Stage 2, 34 mg QD + SSRI/SNRI): 3 (10.3) % | Functional remission: Remitter (%) ([2]; Week 3, Stage 1, 34 mg QD + SSRI/SNRI): 20 (39.2) % | Functional remission: Remitter (%) ([2]; Week 3, Stage 2, 34 mg QD + SSRI/SNRI): 3 (10.3) % | Functional remission: Remitter (%) ([2]; Week 4, Stage 1, 34 mg QD + SSRI/SNRI): 20 (39.2) % | Functional remission: Remitter (%) ([2]; Week 4, Stage 2, 34 mg QD + SSRI/SNRI): 4 (13.8) % | Functional remission: Remitter (%) ([2]; Week 5, Stage 1, 34 mg QD + SSRI/SNRI): 22 (43.1) % | Functional remission: Remitter (%) ([2]; Week 5, Stage 2, 34 mg QD + SSRI/SNRI): 6 (20.7) % | SDS effect size, treatment difference in LSmean change from baseline to Week 10 ([2]; continuous treatment for 10 weeks in Stages 1 and 2): 0.469 | Weighted Treatment Diff in Remission Rate (%) ([2]; functional remission, Overall Treatment Comparison at Week 5 (Linear Combination Test)): 18.6% | Diff (PIM 34 mg-Placebo) in Remission Rate (%) ([2]; functional remission, Week 1, Stage 1): 5.1% | Diff (PIM 34 mg-Placebo) in Remission Rate (%) ([2]; functional remission, Week 1, Stage 2): −3.4% | Diff (PIM 34 mg-Placebo) in Remission Rate (%) ([2]; functional remission, Week 2, Stage 1): 27.4% | Diff (PIM 34 mg-Placebo) in Remission Rate (%) ([2]; functional remission, Week 2, Stage 2): 0.0% | Diff (PIM 34 mg-Placebo) in Remission Rate (%) ([2]; functional remission, Week 3, Stage 1): 24.1% | Diff (PIM 34 mg-Placebo) in Remission Rate (%) ([2]; functional remission, Week 3, Stage 2): 0.0% | Diff (PIM 34 mg-Placebo) in Remission Rate (%) ([2]; functional remission, Week 4, Stage 1): 19.5% | Diff (PIM 34 mg-Placebo) in Remission Rate (%) ([2]; functional remission, Week 4, Stage 2): 6.9% | Diff (PIM 34 mg-Placebo) in Remission Rate (%) ([2]; functional remission, Week 5, Stage 1): 23.4% | Diff (PIM 34 mg-Placebo) in Remission Rate (%) ([2]; functional remission, Week 5, Stage 2): 13.8% | SDS LSmean difference (SE) pimavanserin vs placebo ([2]; overall (weighted Stage 1 and Stage 2)): −0.8 (0.29) | HAMD-17 Item 14 (sexual interest) Cohen's d effect size [3]: 0.574 | HAMD-17 Item 14 (sexual interest) LS Mean (SE) change from baseline ([3]; 34 mg QD + SSRI/SNRI): −0.7 (0.12) | patients with a CGI-I score of 1 or 2 (very much improved or much improved) [4]: 54.8%
